# Test results from patent US8242080B2, “Inhibitors of the EGFR kinase targeting the asymmetric activating dimer interface” (The Regents of the University of California, priority 2006, dated 2012).
# pIC50: −log10 of the molar value. Where a SMILES comes first, the peptide text is derived from it.
# How the values were obtained:
# [1] = molecular target: T1, wildtype EGFR kinase domain (Homo sapiens, UniProt P00533); experiment: Continuous enzyme-coupled kinase assay, substrate peptide KM; type: biochemical; conditions: preliminary experiments, substrate peptide at various concentrations; ATP 0.5 mM
# T1 construct: DNA encoding residues 672-998 of human EGFR was cloned into pFAST BAC HT; made in house; host or cells: Sf9 insect cells (baculovirus, pFAST BAC HT; b247 prints 'SD cells')
# Description: (§1) A continuous enzyme-coupled kinase assay was performed to measure the kinase activity of the proteins as described in Barker et al., ((1995) Biochemistry, Vol. 34(54): 14843-51), with modifications, as described herein. The ATP concentration was kept to 0.5 mM.
# (§2) The buffer used contained 10 mM MgCl2, 20 mM Tris, and pH 7.5. […] The substrate peptide was derived from the region spanning Y1173 in EGFR ([…]) (SEQ ID NO: 7). All proteins used in this assay contained the N-terminal (His)6 tag unless otherwise noted.
# For comparing the specific activity of the wildtype and various mutant forms of the EGFR kinase domain in the presence and absence of lipid vesicles, the density of DOGS-NTA-Ni on lipid vesicles was kept at 5 mole percent. […] Due to this high value of KM, the values of KM and kcat were not measured directly. Instead, the value of kcat/KM was derived from a linear fit to the data obtained, using concentrations of the peptide that are much lower than the estimated value of KM (V=[S]Vmax/(KM+[S]), V˜(Vmax/KM)[S] when [S]<<KM, kcat=Vmax/amount of the enzyme, where V and Vmax are the initial velocity and maximum initial velocity, respectively. (FIG. 6A).
# activated EGFR kinase = molecular target: T2, activated EGFR kinase (Homo sapiens, UniProt P00533); experiment: Inhibition of activated EGFR kinase (kinase assay with kinase domain attached to vesicles); type: biochemical; conditions: read-out: IC50 inhibiting activated EGFR kinase
# T2 construct: DNA encoding residues 672-998 of human EGFR was cloned into pFAST BAC HT; made in house; host or cells: Sf9 insect cells (baculovirus, pFAST BAC HT; b247 prints 'SD cells')
# Description: as §1, §2
# The protein concentrations of the EGFR kinase domain used in the assay ranged from 3.5 to 14 μM. The total concentration of the DOGS-NTA-Ni in the bulk solution was kept to 12.5 μM in all assays with DOG-NTA-Ni-containing vesicles. For assays of the kinase domain attached to vesicles, the protein and vesicles were preincubated at 4° C. for ˜5 min.
# The wildtype EGFR kinase domain was mixed with vesicles containing 0, 0.5, 1, 2 and 5 mole percent of DOGS-NTA-Ni prior to the start of the assay. The final concentration of the protein in the assay was 3.5 μM. […]
# For comparing the specific activity of the wildtype and various mutant forms of the EGFR kinase domain in the presence and absence of lipid vesicles, the density of DOGS-NTA-Ni on lipid vesicles was kept at 5 mole percent. […] Due to this high value of KM, the values of KM and kcat were not measured directly. […]
Compound,Km [1],pIC50 (activated EGFR kinase)
CC(C)C[C@H](NC(=O)[C@H](Cc1ccc(O)cc1)NC(=O)[C@H](CCC(=O)O)NC(=O)[C@H](C)NC(=O)[C@H](CC(N)=O)NC(=O)[C@H](CCC(=O)O)NC(=O)[C@H](C)NC(=O)[C@@H](N)[C@@H](C)O)C(=O)N[C@@H](CCCNC(=N)N)C(=O)N[C@H](C(=O)N[C@@H](C)C(=O)N1CCC[C@H]1C(=O)N[C@@H](CCC(N)=O)C(=O)O)C(C)C [substrate peptide] (H-TAENAEYLRVAPQ-OH),> 4 mM,–
KSLPSYLNGVMPPTQSFAPDPKYVSS [40-mer peptide],–,~5.00
